The subject of one test is MN9D cells. Kind of test: Dopaminergic gene expression (TH, DAT, AADC, VMAT2, c-Ret), qRT-PCR, MN9D cells with MPP+. The class given is cell-based, mouse. The note with it: for Relative TH mRNA expression (fold of Cont.): Fig. S5a; for Relative DAT mRNA expression (fold of Cont.): Fig. S5b; for Relative AADC mRNA expression (fold of Cont.): Fig. S5c; for Relative c-Ret mRNA expression (fold of Cont.): Fig. S5e; for Relative VMAT mRNA expression (fold of Cont.): Fig. S5d; for dopaminergic gene expression (in words): MN9D, decreased by MPP+. The method, then: (§1) Total RNA was extracted using the GeneJET RNA Purification Kit (Thermo Fisher Scientific) and 100 ng of RNA was subjected to cDNA synthesis using Invitrogen Superscript cDNA Synthesis Kit (Invitrogen) according to the manufacturer’s protocol. qRT-PCR was performed using a CFX Connect Real-Time System (Bio-Rad) in a 20 μl volume mixture containing 2X SsoAdvanced Universal SYBR Green Supermix (Bio-Rad), 100 ng/μl of forward and reverse primers, and 1 μl of cDNA sample. Gene expression levels were quantified by the 2^∆∆CT method (Ct of target gene—Ct of glyceraldehyde-3-phosphate dehydrogenase (GAPDH). The following primers were used for qRT-PCR: TH forward: 5′-[…]-3′, reverse: 5′-[…]-3′; DAT forward: 5′-[…]-3′, reverse: 5′-[…]-3′; AADC forward: 5′-[…]-3′, reverse: 5′-[…]-3′; VMAT2 forward: 5′-[…]-3′, reverse: 5′-[…]-3′; c-Ret forward: 5′-[…]-3′, reverse: 5′-[…]-3′; TNFα forward: 5′-[…]-3′; reverse: 5′-[…]-3′; GAPDH, forward 5′-[…]-3′, reverse 5′-[…]-3′.

The next test relates to TNFα gene. The test can be described thus: LPS-induced TNFα gene expression in BV2 cells, qRT-PCR. The class given is cell-based, mouse. The note with it: for Relative TNFα expression (% of control): Fig. S6, LPS; for EC50: Mus musculus, BV-2. As to the method: SK-N-BE(2)C human neuroblastoma, BV2 mouse microglia (ATCC), HeLa and MN9D cell lines were cultured in Dulbecco’s Modified Eagle Medium (DMEM) supplemented with 10% fetal bovine serum (FBS) and 100 U /ml penicillin and 100 μg /ml streptomycin. The murine MN9D dopaminergic cell line was kindly provided by Drs. Michael Zigmond and Juliann Jaumotte from the University of Pittsburgh. The N27-A rat dopaminergic cell line was kindly provided by Dr. Curt Freed from the University of Colorado School of Medicine. […] For transactivity assay, SK-N-BE(2)C and N27-A cell lines were transfected with pCMV-fNurr1, pGAL-Nurr1(LBD), pGAL-Nor1(LBD) or pGAL-Nur77(LBD) and reporter construct (p4xNL3-Luc for fNurr1 or p8xUAS-Luc for LBD constructs). pRSV-β-gal was co-transfected as an internal control. Cells were lysed in a lysis buffer (25 mM Tris-phosphate (pH 7.8), 2 mM DTT, 2 mM DCTA (1,2-diaminocyclohexane-N,N,N′,N′-tetraacetic acid), 10% glycerol, and 1% Triton X-100) 24 h after transfection, followed by adding firefly luciferase substrate for luminescence detection measured by a luminometer plate reader (SpectraMax®; Molecular device). Nurr1 transactivity was normalized to β-galactosidase activity. […] For Nurr1 stability determination, MN9D cells were incubated with MPP^+ (0.5 mM) for 2, 4, 8, 16, 24, and 32 h, or were transduced with lentivirus expressing GFP only or αSyn (wild-type or A53T) then harvested 24, 48 and 72 h after transduction. For autophagolysosome (APL) formation assay, HeLa and N27-A cells were transfected with mRFP-GFP-LC3 (Addgene) using Lipofectamine 2000 (Invitrogen). The medium was changed with starvation medium (Earle’s Balanced Salt Solution; EBSS) 24 h after transfection for autophagy induction.
as §1

For a further test, the system named is N27-A cells. The test can be described thus: Autophagolysosome (APL) formation assay, mRFP-GFP-LC3, N27-A cells. The class given is cell-based, rat. The note with it: for LC3 dots/cell, Red LC3 dots / LC3 dots/cell, Yellow LC3 dots: Figure 3b, mRFP-GFP-LC3, individual cells (30 per treatment). The method, then:
HeLa and N27-A cells were transfected with tandem mRFP-GFP-LC3 (Addgene) plasmid using Lipofectamine 2000 (Invitrogen) in 24-well plates. After 24 h, cells were incubated in starvation medium (Earle’s Balanced Salt Solution, EBSS; Lonza) containing bafilomycin A1 (BafA1, 10 nM), CQ (20 µM), or 4A7C-301 (1 µM) for 6 h and then fixed with 4% formaldehyde for fluorescence detection. Images were taken using a KEYENCE microscope and red (mRFP) LC3 dots and yellow (mRFP+GFP) LC3 dots were counted from three independent wells for each treatment group. 10 cells were randomly selected and counted from each well and a total of 30 cells were analyzed for each treatment group in both HeLa and N27-A cells.

A further test concerns HeLa cells. Kind of test: Autophagic flux, Western blot LC3B and p62, HeLa cells. The class given is cell-based. The note with it: for autophagic flux (in words): HeLa; for Relative LC3B-II experession (normalized to β-actin): Supplementary Figure S7f; for Relative p62 experession (normalized to β-actin): Supplementary Figure S7g; for Relative LC3B-II expression (normalized to β-actin): Supplementary Figure S7i; for Relative p62 expression (normalized to β-actin): Supplementary Figure S7j. As to the method: Experiments were confirmed by duplicate measurements of the same sample. Quantification of immunoreactive bands was performed using ImageJ software (NIH, Bethesda, MD, USA) and expressed as a relative ratio against β-actin.
The band intensities were quantified using ImageJ and normalized against β-actin.

Test [1] deals with AAV-αSyn-induced male mice. Kind of test: Rotarod, AAV-αSyn-induced PD model mice. The class given is in vivo, mouse. The note with it: αSynWT and αSynA53T mice; CQ 40, 4A7C-301 5 mg/kg/day i.p. From the text: Adeno-associated viruses (AAVs) expressing GFP only or αSyn (wild-type or A53T) were kindly provided by Dr. Yoon Seong Kim from the University of Central Florida. Recombinant AAV vectors were produced using modified pAAV-IRES-hrGFP (Agilent) to express wild-type and mutant human αSyn under control of the CMV promoter. Viral particles (AAV2) were produced at the University of Iowa Viral Vector Core according to standard operating procedures (https://medicine.uiowa.edu/vectorcore/). […] AAV vectors were delivered into the substantia nigra unilaterally by stereotaxic surgery.
Mice were pre-trained on an automated 5-lane rotarod unit (10 rpm, 3 min) for 2 days and the baseline was measured (10 rpm, 90 sec) before the rotarod test (3 days before the MPTP injection or the first rotarod test at week 2). Rotarod measurements were performed using an accelerating protocol, accelerated smoothly from 2 to 30 rpm for 5 min. Time on the rotating rod was measured automatically by placing a trip switch under the floor beneath the rotating drum.

Structures are written as SMILES. Where “and” joins values, the source holds several entries; their conditions need not be identical. Identical values can stand only once. Like-named read-outs stand apart in the source and are kept apart here.

In the case of `CCN1CCN(c2cc(N3CCN(CC)CC3)nc(NCCNc3ccnc4cc(Cl)ccc34)n2)CC1` [4A7C-301, N^1-(4,6-bis(4-ethylpiperazin-1-yl)pyrimidin-2-yl)-N^2-(7-chloroquinolin-4-yl)ethane-1,2-diamine], the “Relative TH mRNA expression (fold of Cont.)” value in the test with MN9D cells (w/ MPP+) was 1.331 fold of Cont. and 1.238 fold of Cont. and 1.4297 fold of Cont; with MN9D cells (w/o MPP+) it was 2.626 fold of Cont. and 3.055 fold of Cont. and 2.8325 fold of Cont. Also, the “Relative DAT mRNA expression (fold of Cont.)” value is 1.51 fold of Cont. and 1.43 fold of Cont. and 1.594 fold of Cont in the test with MN9D cells (w/ MPP+); 3.527 fold of Cont. and 3.949 fold of Cont. and 3.732 fold of Cont in the test on MN9D cells (w/o MPP+). For the same compound, the “Relative AADC mRNA expression (fold of Cont.)” value was 1.175 fold of Cont. and 1.144 fold of Cont. and 1.206 fold of Cont with MN9D cells (w/ MPP+); 1.767 fold of Cont. and 1.615 fold of Cont. and 1.689 fold of Cont in the test on MN9D cells (w/o MPP+). Moreover, the “Relative c-Ret mRNA expression (fold of Cont.)” value was 0.9952 fold of Cont. and 1.121 fold of Cont. and 0.8833 fold of Cont in the test on MN9D cells (w/ MPP+); 1.827 fold of Cont. and 2.268 fold of Cont. and 2.036 fold of Cont with MN9D cells (w/o MPP+). The “Relative VMAT mRNA expression (fold of Cont.)” value in the test with MN9D cells (w/ MPP+) was 1.0229 fold of Cont. and 0.9814 fold of Cont. and 1.066 fold of Cont; in the test with MN9D cells (w/o MPP+), 2.085 fold of Cont. and 1.956 fold of Cont. and 2.019 fold of Cont. Moreover, the “dopaminergic gene expression (in words)” value in the test with MN9D cells was “significantly rescued”. Besides, the “concentration for similar effect, times lower than CQ” value in the test with MN9D cells (dopaminergic gene expression, MN9D and VM primary cells) was 20–40 times. Also, the “Relative TNFα expression (% of control)” value was 72.3049 % of control and 70.453 % of control and 74.7916 % of control with TNFα gene (Conc. 0.0001 µM); 45.7586 % of control and 44.0429 % of control and 42.816 % of control with TNFα gene (Conc. 0.001 µM); 26.6218 % of control and 26.6304 % of control and 26.1645 % of control with TNFα gene (Conc. 0.01 µM); 25.1791 % of control and 23.3247 % of control and 22.8855 % of control with TNFα gene (Conc. 0.1 µM); 21.147 % of control and 21.3464 % of control and 19.5073 % of control in the test with TNFα gene (Conc. 1 µM). Further, the EC50 with TNFα gene (suppression of LPS-induced TNFα gene, BV2 cells, read-out: EC50) was ~1 nM. The “LC3 dots/cell, Red LC3 dots” value in the test on N27-A cells is 22 dots/cell (5×) and 32 dots/cell and 15 dots/cell and 27 dots/cell (6×) and 21 dots/cell (4×) and 26 dots/cell (2×) and 34 dots/cell and 31 dots/cell (2×) and 19 dots/cell (3×) and 12 dots/cell and 17 dots/cell (2×) and 16 dots/cell and 20 dots/cell. For the same compound, the “LC3 dots/cell, Yellow LC3 dots” value with N27-A cells is 9 dots/cell (2×) and 10 dots/cell (3×) and 16 dots/cell (2×) and 11 dots/cell (4×) and 20 dots/cell (2×) and 3 dots/cell (2×) and 4 dots/cell (2×) and 5 dots/cell (3×) and 15 dots/cell and 17 dots/cell and 14 dots/cell (3×) and 6 dots/cell (2×) and 7 dots/cell and 2 dots/cell and 12 dots/cell. The “autophagic flux (in words)” value with HeLa cells (10-times higher concentrations than 1 µM) was “did not inhibit autophagy”; in the test with HeLa cells (LC3B-II and p62), “completed”. The “Relative LC3B-II experession (normalized to β-actin)” value was 0.384 and 0.423 and 0.339 in the test with HeLa cells (time 0h); 0.455 and 0.539 and 0.396 in the test on HeLa cells (time 0.5h); 0.533 and 0.561 and 0.521 in the test on HeLa cells (time 1h); 0.526 and 0.509 and 0.466 with HeLa cells (time 2h); 0.415 and 0.449 and 0.331 in the test with HeLa cells (time 4h). Also, the “Relative p62 experession (normalized to β-actin)” value is 0.809 and 0.904 and 0.909 with HeLa cells (time 0h); 0.889 and 0.886 and 0.829 in the test with HeLa cells (time 0.5h); 0.800 and 0.736 and 0.720 in the test with HeLa cells (time 1h); 0.670 and 0.672 and 0.687 in the test with HeLa cells (time 2h); 0.552 and 0.570 with HeLa cells (time 4h). For the same compound, the “Relative LC3B-II expression (normalized to β-actin)” value in the test on HeLa cells (Conc. 1 µM) is 0.5044 and 0.5121 and 0.5349; with HeLa cells (Conc. 10 µM) it was 0.4913 and 0.4289 and 0.4955. Further, the “Relative p62 expression (normalized to β-actin)” value is 0.2532 and 0.2036 and 0.1875 in the test on HeLa cells (Conc. 1 µM); 0.2002 and 0.2111 and 0.1727 in the test with HeLa cells (Conc. 10 µM). Also, the “motor deficits, rotarod (latency to fall) (in words)” value in test [1] is “improved motor deficits”.

For the compound `CCN(CC)CCCC(C)Nc1ccnc2cc(Cl)ccc12` (centres unmarked) [CQ, chloroquine], the “dopaminergic gene expression (in words)” value in the test on MN9D cells is “significantly rescued”. In addition, the EC50 in the test on TNFα gene is ~100 nM. Further, in the test on N27-A cells, the “LC3 dots/cell, Red LC3 dots” value is 6 dots/cell (4×) and 7 dots/cell (5×) and 11 dots/cell (6×) and 10 dots/cell (2×) and 5 dots/cell (3×) and 15 dots/cell (2×) and 4 dots/cell (2×) and 8 dots/cell (2×) and 13 dots/cell and 17 dots/cell and 9 dots/cell and 2 dots/cell; the “LC3 dots/cell, Yellow LC3 dots” value is 25 dots/cell (2×) and 30 dots/cell (6×) and 28 dots/cell (3×) and 20 dots/cell and 17 dots/cell (3×) and 21 dots/cell (4×) and 19 dots/cell and 22 dots/cell (2×) and 23 dots/cell (2×) and 18 dots/cell (2×) and 16 dots/cell and 29 dots/cell (2×) and 31 dots/cell. Moreover, the “autophagy process (in words)” value in the test with N27-A cells (N27-A, EBSS, CQ 20 µM, 4A7C-301 1 µM) was “inhibits”. Besides, the “autophagic flux (in words)” value in the test on HeLa cells (LC3B-II and p62) is “failed to terminate”. Besides, in test [1], the “motor deficits, rotarod (latency to fall) (in words)” value is “partial recovery”.
